Consider 53 compounds from the OPERA property sets (Mansouri et al. 2018).

On to `C=CCCC(=C)C`, for which the boiling point was 88.1 °C and the melting point is -129 °C.

Regarding `CCCC=NO`, the boiling point was determined as 154 °C and the melting point was -29.5 °C.

Regarding `COc1c(C)cccc1C`, the boiling point amounted to 182 °C.

The compound `CCCC(c1ccccc1)c1ccccc1` gave a boiling point of 287 °C and a melting point of 27 °C.

For `Clc1ccc(Cl)c(-c2cc(Cl)c(Cl)cc2Cl)c1`, the log10 Henry constant (atm·m³/mol) was -4.05, the log10 Koa came to 9.06, the log10 Koc (L/kg) amounted to 5.22 and the log10 vapour pressure (mmHg) is -4.6.

With `O=C(O)CCCCCC1NC(=O)CS1` (centres undefined), the melting point stood at 140 °C.

`CCC(C)=NO[Si](C)(ON=C(C)CC)ON=C(C)CC`: the ready biodegradability entry was “not readily biodegradable”.

Regarding `Cc1cccc(O)c1C(=O)O`, the melting point came to 173 °C.

Take `O=C(OC1CCCCC1)c1ccccc1`: the boiling point was 285 °C.

Turning to `CCOc1ccc(N)c(N)c1`, the boiling point was found to be 295 °C and the melting point was found to be 71.5 °C.

Take `CCCCOC(=O)C(=O)[C@H]1[C@H](C)C[C@H]2[C@@H]3C[C@H](F)C4=CC(=O)C=C[C@]4(C)[C@H]3[C@@H](O)C[C@@]21C`: the melting point is 195 °C.

As for `O=CC=Cc1ccc([N+](=O)[O-])cc1`, the melting point worked out at 142 °C.

The compound `CCOC(=O)CC(O)(CC(=O)OCC)C(=O)OCC` registered a boiling point of 294 °C.

On to `CCCCC(CC)COC(=O)c1ccc(C(=O)OCC(CC)CCCC)cc1` (centres undefined), for which the boiling point was 383 °C, the log10 Koc (L/kg) worked out at 4.16 and the melting point is -48 °C.

Turning to `CCC1CCNCC1`, the boiling point was 154 °C.

As for `O=S(=O)(Cl)c1ccc(Cl)cc1`, the melting point came to 51 °C.

For `CCCCCCCCCCCC(=O)OCC(O)C1OCC(O)C1O` (centres undefined), the ready biodegradability entry is listed as “readily biodegradable”.

`Nc1ccc(Cc2ccc(N)c(Cl)c2)cc1Cl`: the boiling point turned out to be 379 °C, the melting point came out at 110 °C and the ready biodegradability entry was “not readily biodegradable”.

Take `CCCOC(=O)c1ccc(O)cc1`: the melting point is 97 °C.

Take `O=c1c(Cl)c(Cl)cnn1-c1ccccc1`: the log10 vapour pressure (mmHg) is -4.05 and the melting point was determined as 162 °C.

For the compound `Cc1ccccn1`, the boiling point was found to be 129 °C, the log10 Henry constant (atm·m³/mol) is -5, the log10 vapour pressure (mmHg) is 1.05 and the melting point is -66.7 °C. Moreover, the ready biodegradability result is given as “readily biodegradable”.

`CN(C)[C@@H]1C(O)=C(C(N)=O)C(=O)[C@@]2(O)C(O)=C3C(=O)c4c(O)cccc4[C@@](C)(O)[C@H]3[C@H](O)[C@@H]12` registered a melting point of 184 °C.

For `NCCOCCO`, the boiling point turned out to be 221 °C and the log10 vapour pressure (mmHg) was -2.81.

`CC(C)(Br)[N+](=O)[O-]` returned a boiling point of 153 °C.

`Nc1c(Br)cc([N+](=O)[O-])cc1[N+](=O)[O-]` displayed a melting point of 154 °C.

The compound `C1CCC(C(C2CCCCC2)C2CCCCC2)CC1` had a boiling point of 326 °C and a melting point of 48 °C.

For the compound `Clc1ccc2ccccc2n1`, the boiling point was found to be 266 °C and the melting point turned out to be 38 °C.

For `CCCCCCCCCCCCCCCCCCCCCC(=O)OCC`, the melting point turned out to be 50 °C.

On to `CC(=O)O.CCCCCCCCCCCCNC(=N)N`, for which the log10 vapour pressure (mmHg) is -6.82 and the melting point is 136 °C.

As for `C=CCCCC=C`, the melting point was -129 °C.

The compound `CC(C)CCC[C@@H](C)[C@H]1CC[C@@H]2[C@@H]3CC[C@H]4CCCC[C@]4(C)[C@H]3CC[C@@]21C` returned a melting point of 76 °C.

`C[C@@H](O)C1CC1`: the boiling point came out at 124 °C and the melting point was -32.1 °C.

Regarding `ON=C(C1CC1)C1CC1`, the melting point is 76.5 °C.

As to `NC(=O)c1ccccc1`, the boiling point amounted to 290 °C, the log10 Henry constant (atm·m³/mol) is -9.61, the log10 Koc (L/kg) was found to be 1.46 and the melting point came out at 129 °C.

On to `C=C(Cl)CSC(=S)N(CC)CC`, for which the log10 vapour pressure (mmHg) is -2.66.

The compound `CC(C)(C#N)/N=N/C(C)(C)C#N` registered a melting point of 102 °C.

With `CCOc1cccc2ccccc12`, the boiling point worked out at 280 °C and the melting point turned out to be 5.5 °C.

For `O=S(=O)(O)c1ccc2c(O)cc(S(=O)(=O)O)cc2c1`, the ready biodegradability result was “readily biodegradable”.

In the case of `CCOC(=O)c1cccc2ccccc12`, the boiling point came out at 310 °C.

`Clc1cc(Cl)c(-c2ccccc2)cc1Cl`: the log10 Henry constant (atm·m³/mol) was -3.7, the log10 Koa was found to be 8, the log10 vapour pressure (mmHg) is -3.01 and the melting point was determined as 76.3 °C.

Take `CC=C(C)CC`: the boiling point worked out at 69 °C, the log10 vapour pressure (mmHg) came out at 2.2 and the melting point is -137 °C.

Consider `Nc1cc(N)cc(C(=O)O)c1`, for which the melting point was found to be 228 °C.

Turning to `O=C(CCCN1CCC2(CC1)C(=O)NCN2c1ccccc1)c1ccc(F)cc1`, the melting point came to 142 °C.

In the case of `Cc1ccc(C)s1`, the boiling point was determined as 136 °C, the log10 vapour pressure (mmHg) was found to be 0.994 and the melting point is -62.6 °C.

With `O=S1(=O)CCCC1`, the boiling point stood at 285 °C, the melting point came to 27.6 °C and the ready biodegradability result is “not readily biodegradable”.

`ClCCN(CCCl)c1ccc2ccccc2c1` returned a melting point of 55 °C.

The compound `CC#CCCCC` showed a boiling point of 112 °C.

Consider `CCN(Cc1ccc(Cl)nc1)/C(=C/[N+](=O)[O-])NC`, for which the log10 vapour pressure (mmHg) was -11.1.

Take `CCc1ccccc1-n1c(C)nc2ccccc2c1=O`: the melting point is 81 °C.

Turning to `CCCOC(C)=O`, the boiling point was 102 °C, the log10 Henry constant (atm·m³/mol) was -3.66, the log10 Koa is 3.17 and the log10 vapour pressure (mmHg) stood at 1.56. Besides, the melting point is -93 °C and the ready biodegradability result was “readily biodegradable”.

`COc1ccc(S)cc1` showed a boiling point of 228 °C.

As to `O=C(O)c1ccc([N+](=O)[O-])cc1`, the melting point came to 242 °C and the ready biodegradability entry was “readily biodegradable”.

With `CCSCCSP(=O)(OC)OC`, the log10 Koc (L/kg) was found to be 1.49 and the log10 vapour pressure (mmHg) is -3.52.
